# Species: Rattus norvegicus
# Assay: DrugMatrix - Regimen: Daily Repeat
# Format: toxicity, organism-based, Sprague-Dawley
# Set-up: regimen Daily Repeat, gender Male, age 6-8 weeks
# Conditions: in vivo, po, route oral GAVAGE, vehicle 100 % WATER; for ABSOLUTE BASOPHIL / ABSOLUTE EOSINOPHIL / ABSOLUTE LYMPHOCYTE / ABSOLUTE MONOCYTE / ABSOLUTE SEGMENTED NEUTROPHIL / BASOPHIL / EOSINOPHIL / ERYTHROCYTE COUNT / HEMATOCRIT / HEMOGLOBIN / LEUKOCYTE COUNT / LYMPHOCYTE / MEAN CORPUSCULAR HEMOGLOBIN / MEAN CORPUSCULAR HEMOGLOBIN CONCENTRATION / MEAN CORPUSCULAR VOLUME / MONOCYTE / NEUTROPHIL / NUCLEATED RED BLOOD CELLS / PLATELET COUNT: tissue Blood; for ALANINE AMINOTRANSFERASE / ALBUMIN / ALKALINE PHOSPHATASE / ASPARTATE AMINOTRANSFERASE / BLOOD UREA NITROGEN / CARBON DIOXIDE / CHLORIDE / CHOLESTEROL / CREATINE PHOSPHOKINASE / CREATININE / GLUCOSE / LIPASE / PHOSPHORUS / POTASSIUM / SODIUM / TOTAL BILIRUBIN / TOTAL PROTEIN / URIC ACID: tissue Plasma
# [1] = 0 mg/kg, 72 h, dose level Control, time 3 day
# [2] = 0 mg/kg, 120 h, dose level Control, time 5 day
# [3] = 175 mg/kg, 72 h, dose level High, time 3 day
smiles,measurement,setting,value
CC(C)NCC(O)COc1cccc2ccccc12 (stereo unspecified) [PROPRANOLOL],ABSOLUTE BASOPHIL,[1],0 CELLS/uL
same,ABSOLUTE EOSINOPHIL,[1],46 CELLS/uL
same,ABSOLUTE LYMPHOCYTE,[1],10225.67 CELLS/uL
same,ABSOLUTE MONOCYTE,[1],319.33 CELLS/uL
same,ABSOLUTE SEGMENTED NEUTROPHIL,[1],1242.33 CELLS/uL
same,BASOPHIL,[1],0%
same,EOSINOPHIL,[1],0.33%
same,ERYTHROCYTE COUNT,[1],5.17 x10E6/uL
same,HEMATOCRIT,[1],33.43%
same,HEMOGLOBIN,[1],12.55 G/DL
same,LEUKOCYTE COUNT,[1],11.83 x10E3/uL
same,LYMPHOCYTE,[1],86.5%
same,MEAN CORPUSCULAR HEMOGLOBIN,[1],24.35 pg
same,MEAN CORPUSCULAR HEMOGLOBIN CONCENTRATION,[1],37.57 G/DL
same,MEAN CORPUSCULAR VOLUME,[1],64.8 fL
same,MONOCYTE,[1],2.67%
same,NEUTROPHIL,[1],10.5%
same,NUCLEATED RED BLOOD CELLS,[1],0.17 /100WBC
same,PLATELET COUNT,[1],1026.17 x10E3/uL
same,ALANINE AMINOTRANSFERASE,[1],52.67 u/L
same,ALBUMIN,[1],4.17 G/DL
same,ALKALINE PHOSPHATASE,[1],331 u/L
same,ASPARTATE AMINOTRANSFERASE,[1],92.33 u/L
same,BLOOD UREA NITROGEN,[1],15.33 mg/dL
same,CARBON DIOXIDE,[1],26.17 mmol/L
same,CHLORIDE,[1],103.17 MEQ/L
same,CHOLESTEROL,[1],73.67 mg/dL
same,CREATINE PHOSPHOKINASE,[1],472.83 u/L
same,CREATININE,[1],0.29 mg/dL
same,GLUCOSE,[1],178.5 mg/dL
same,LIPASE,[1],10.67 u/L
same,PHOSPHORUS,[1],12.45 mg/dL
same,POTASSIUM,[1],6.35 MEQ/L
same,SODIUM,[1],144.27 MEQ/L
same,TOTAL BILIRUBIN,[1],0.13 mg/dL
same,TOTAL PROTEIN,[1],5.77 G/DL
same,URIC ACID,[1],2.08 mg/dL
same,ABSOLUTE BASOPHIL,[2],0 CELLS/uL
same,ABSOLUTE EOSINOPHIL,[2],23.5 CELLS/uL
same,ABSOLUTE LYMPHOCYTE,[2],12797.33 CELLS/uL
same,ABSOLUTE MONOCYTE,[2],465.5 CELLS/uL
same,ABSOLUTE SEGMENTED NEUTROPHIL,[2],1313.67 CELLS/uL
same,BASOPHIL,[2],0%
same,EOSINOPHIL,[2],0.17%
same,ERYTHROCYTE COUNT,[2],5.76 x10E6/uL
same,HEMATOCRIT,[2],36.72%
same,HEMOGLOBIN,[2],13.72 G/DL
same,LEUKOCYTE COUNT,[2],14.6 x10E3/uL
same,LYMPHOCYTE,[2],87.5%
same,MEAN CORPUSCULAR HEMOGLOBIN,[2],23.8 pg
same,MEAN CORPUSCULAR HEMOGLOBIN CONCENTRATION,[2],37.35 G/DL
same,MEAN CORPUSCULAR VOLUME,[2],63.72 fL
same,MONOCYTE,[2],3.17%
same,NEUTROPHIL,[2],9.17%
same,NUCLEATED RED BLOOD CELLS,[2],0.33 /100WBC
same,PLATELET COUNT,[2],1270.67 x10E3/uL
same,ALANINE AMINOTRANSFERASE,[2],50.5 u/L
same,ALBUMIN,[2],4.32 G/DL
same,ALKALINE PHOSPHATASE,[2],339.67 u/L
same,ASPARTATE AMINOTRANSFERASE,[2],88 u/L
same,BLOOD UREA NITROGEN,[2],17 mg/dL
same,CARBON DIOXIDE,[2],25 mmol/L
same,CHLORIDE,[2],103.83 MEQ/L
same,CHOLESTEROL,[2],71.33 mg/dL
same,CREATINE PHOSPHOKINASE,[2],281.83 u/L
same,CREATININE,[2],0.26 mg/dL
same,GLUCOSE,[2],161.67 mg/dL
same,LIPASE,[2],10.17 u/L
same,PHOSPHORUS,[2],11.72 mg/dL
same,POTASSIUM,[2],6.76 MEQ/L
same,SODIUM,[2],145.17 MEQ/L
same,TOTAL BILIRUBIN,[2],0.2 mg/dL
same,TOTAL PROTEIN,[2],6.15 G/DL
same,URIC ACID,[2],2 mg/dL
same,ABSOLUTE BASOPHIL,[3],0 CELLS/uL
same,ABSOLUTE EOSINOPHIL,[3],124 CELLS/uL
same,ABSOLUTE LYMPHOCYTE,[3],11451.33 CELLS/uL
same,ABSOLUTE MONOCYTE,[3],0 CELLS/uL
same,ABSOLUTE SEGMENTED NEUTROPHIL,[3],824.67 CELLS/uL
same,BASOPHIL,[3],0%
same,EOSINOPHIL,[3],1%
same,ERYTHROCYTE COUNT,[3],5.24 x10E6/uL
same,HEMATOCRIT,[3],34.07%
same,HEMOGLOBIN,[3],12.73 G/DL
same,LEUKOCYTE COUNT,[3],12.4 x10E3/uL
same,LYMPHOCYTE,[3],92%
same,MEAN CORPUSCULAR HEMOGLOBIN,[3],24.3 pg
same,MEAN CORPUSCULAR HEMOGLOBIN CONCENTRATION,[3],37.37 G/DL
same,MEAN CORPUSCULAR VOLUME,[3],65.07 fL
same,MONOCYTE,[3],0%
same,NEUTROPHIL,[3],7%
same,NUCLEATED RED BLOOD CELLS,[3],0 /100WBC
same,PLATELET COUNT,[3],1403.33 x10E3/uL
same,ALANINE AMINOTRANSFERASE,[3],49 u/L
same,ALBUMIN,[3],4.2 G/DL
same,ALKALINE PHOSPHATASE,[3],411 u/L
same,ASPARTATE AMINOTRANSFERASE,[3],73.33 u/L
same,BLOOD UREA NITROGEN,[3],14.33 mg/dL
same,CARBON DIOXIDE,[3],24 mmol/L
same,CHLORIDE,[3],103 MEQ/L
same,CHOLESTEROL,[3],75.33 mg/dL
same,CREATINE PHOSPHOKINASE,[3],253.33 u/L
same,CREATININE,[3],0.21 mg/dL
same,GLUCOSE,[3],152.33 mg/dL
same,LIPASE,[3],9 u/L
same,PHOSPHORUS,[3],13.13 mg/dL
same,POTASSIUM,[3],6.83 MEQ/L
same,SODIUM,[3],143.67 MEQ/L
same,TOTAL BILIRUBIN,[3],0.13 mg/dL
same,TOTAL PROTEIN,[3],5.77 G/DL
same,URIC ACID,[3],2.97 mg/dL

# Reference: ChEMBL document CHEMBL3885881, “DrugMatrix”
